Reference: patent US3960845A, “Process for preparing 7β-acylamino-7α-alkoxycephalosporins or 6β-acylamino-6α-alkoxypenicillins” (Sankyo Company Limited, priority 1974, dated 1976)
≈ marks a conversion by molar mass, not a printed value. Like-named read-outs stand apart in the source and are kept apart here.

Tests used:
Assay type in all cases: cell-based
[1] = tested on: Salmonella enteritidis Gaertner; assay: Minimal inhibitory concentration; conditions: for MIC: Salmonella enterica, read-out: Minimal inhibitory concentration
Description: (§1) Minimal inhibitory concentrations of various microorganisms mcg/ml
VI Salmonella enteritidis Gaertner

[2] = tested on: Staphylococcus aureus 209p; assay: Minimal inhibitory concentration; conditions: for MIC: read-out: Minimal inhibitory concentration
Description: as §1
1 A Staphylococcus aureus 209p

[3] = tested on: Shigella flexneri Komagome; assay: Minimal inhibitory concentration; conditions: III: Shigella flexneri Komagome; for MIC: read-out: Minimal inhibitory concentration
Description: as §1
III Shigella flexneri Komagome

[4] = tested on: Staphylococcus aureus (CP and PC resistant); assay: Minimal inhibitory concentration; conditions: I B: Staphylococcus aureus (CP and PC resistant)
Description: as §1
1 B Staphylococcus aureus

[5] = tested on: broad pathogenic microorganisms; assay: antimicrobial activity; conditions: result in words
[6] = tested on: E. coli NIHJ; assay: Minimal inhibitory concentration; conditions: II A: E. coli NIHJ; for MIC: Escherichia coli
Description: as §1

[7] = tested on: Proteus vulgaris; assay: Minimal inhibitory concentration; conditions: for MIC: read-out: Minimal inhibitory concentration
Description: as §1

[8] = tested on: Klebsiella neumoniae 846 (CER resistant); assay: Minimal inhibitory concentration; conditions: IV B: Klebsiella neumoniae 846 (CER resistant)
Description: as §1
IV B Klebsiella neumoniae 846 (CER resistant)

[9] = tested on: Klebsiella neumoniae 806; assay: Minimal inhibitory concentration
Description: as §1
IV A Klebsiella neumoniae 806

[10] = tested on: E. coli 609 (CER resistant); assay: Minimal inhibitory concentration; conditions: for MIC: Escherichia coli, read-out: Minimal inhibitory concentration
Description: as §1
II B E. coli 609 (CER resistant)

[11] = VI: Salmonella enteritidis Gaertner
[12] = I A: Staphylococcus aureus 209p
[13] = IV A: Klebsiella neumoniae 806, read-out: Minimal inhibitory concentration
[14] = II B: E. coli 609 (CER resistant)

| Structure (SMILES) | MIC [1, 11] [µg/mL] | MIC [2, 12] [µg/mL] | MIC [3] [µg/mL] | MIC [4] [µg/mL] | antimicrobial activity against broad pathogenic microorganisms [5] | MIC [6] [µg/mL] | MIC ([7]; V: Proteus vulgaris) [µg/mL] | MIC [8] [µg/mL] | MIC [9, 13] [µg/mL] | MIC [10, 14] [µg/mL] | other results |
| --- | --- | --- | --- | --- | --- | --- | --- | --- | --- | --- | --- |
| CO[C@@]1(NC(=O)CSc2nnc[nH]2)C(=O)N2C(C(=O)O)=C(COC(N)=O)CS[C@@H]21 [7β-(1,2,4-triazol-4H-3-yl)thioacetamido-7α-methoxy-3-carbamoyloxymethyl-3-cephem-4-carboxylic acid] | 6.2 (≈ 13.9 µM) | 1.5 (≈ 3.37 µM) | 12.5 (≈ 28.1 µM) | 6.2 (≈ 13.9 µM) | excellent antimicrobial activity | 6.2 (≈ 13.9 µM) | 25 (≈ 56.2 µM) | > 400 | 6.2 (≈ 13.9 µM) |  | MIC [10]: 12.5 µg/mL (≈ 28.1 µM) |
| CO[C@@]1(NC(=O)CSc2nncs2)C(=O)N2C(C(=O)O)=C(CSc3nnnn3C)CS[C@@H]21 [7β-(1,3,4-thiadiazol-2-yl)thioacetamido-7α-methoxy-3-(1-methyl-1H-tetrazol-5-yl)thiomethyl-3-cephem-4-carboxylic acid] | 0.8 (≈ 1.55 µM) | 0.4 (≈ 0.774 µM) | 1.5 (≈ 2.9 µM) | 0.8 (≈ 1.55 µM) | excellent antimicrobial activity | 1.5 (≈ 2.9 µM) | 3.1 (≈ 6 µM) | > 200 | 1.5 (≈ 2.9 µM) | 1.5 (≈ 2.9 µM) |  |
| CO[C@@]1(NC(=O)CSc2nncs2)C(=O)N2C(C(=O)O)=C(COC(C)=O)CS[C@@H]21 [7β-(1,3,4-thiadiazol-2-yl)thioacetamido-7α-methoxy-3-acetoxymethyl-3-cephem-4-carboxylic acid] | 3.4 (≈ 7.38 µM) | 0.8 (≈ 1.74 µM) | 6.2 (≈ 13.5 µM) | 1.5 (≈ 3.26 µM) | excellent antimicrobial activity | 3.1 (≈ 6.73 µM) | 6.2 (≈ 13.5 µM) | > 400 | 3.1 (≈ 6.73 µM) | 6.2 (≈ 13.5 µM) |  |
| CO[C@@]1(NC(=O)CSc2nncs2)C(=O)N2C(C(=O)O)=C(COC(N)=O)CS[C@@H]21 [7β-(1,3,4-thiadiazol-2-yl)thioacetamido-7α-methoxy-3-carbamoyloxymethyl-3-cephem-4-carboxylic acid] | 1.5 (≈ 3.25 µM) | 0.4 (≈ 0.867 µM) | 3.1 (≈ 6.72 µM) | 1.5 (≈ 3.25 µM) | excellent antimicrobial activity | 3.1 (≈ 6.72 µM) | 6.2 (≈ 13.4 µM) | > 400 | 3.1 (≈ 6.72 µM) | 3.1 (≈ 6.72 µM) |  |
| CO[C@@]1(NC(=O)CSc2ccon2)C(=O)N2C(C(=O)O)=C(COC(C)=O)CS[C@@H]21 [7β-(3-isoxazolyl)thioacetamido-7α-methoxy-3-acetoxymethyl-3-cephem-4-carboxylic acid] | 1.5 (≈ 3.38 µM) | 0.2 (≈ 0.451 µM) | 6.2 (≈ 14 µM) | 0.8 (≈ 1.8 µM) | excellent antimicrobial activity | 3.1 (≈ 6.99 µM) | 3.1 (≈ 6.99 µM) | > 400 | 3.1 (≈ 6.99 µM) | 6.2 (≈ 14 µM) |  |
| CO[C@@]1(NC(=O)COc2ccon2)C(=O)N2C(C(=O)O)=C(CSc3nnnn3C)CS[C@@H]21 [7β-(3-isoxazolyloxy)acetamido-7α-methoxy-3-(1-methyl-1H-tetrazol-5-yl)thiomethyl-3-cephem-4-carboxylic acid] |  |  |  |  | excellent antimicrobial activity |  |  |  |  |  | Minimal inhibitory concentration [1, 11]: 1.5 µg/mL (≈ 3.1 µM); Minimal inhibitory concentration [2, 12]: 0.2 µg/mL (≈ 0.414 µM); Minimal inhibitory concentration [3]: 3.1 µg/mL (≈ 6.41 µM); Minimal inhibitory concentration [4]: 0.8 µg/mL (≈ 1.65 µM); Minimal inhibitory concentration [6]: 3.1 µg/mL (≈ 6.41 µM); Minimal inhibitory concentration ([7]; V: Proteus vulgaris): 6.2 µg/mL (≈ 12.8 µM); Minimal inhibitory concentration [8]: > 400 µg/mL; Minimal inhibitory concentration ([9]; IV A: Klebsiella neumoniae 806): 3.1 µg/mL (≈ 6.41 µM); Minimal inhibitory concentration [10, 14]: 3.1 µg/mL (≈ 6.41 µM) |
| CO[C@@]1(NC(=O)COc2ccon2)C(=O)N2C(C(=O)O)=C(COC(C)=O)CS[C@@H]21 [7β-(3-isoxazolyloxy)acetamido-7α-methoxy-3-acetoxymethyl-3-cephem-4-carboxylic acid] | 3.1 (≈ 7.25 µM) | ≤ 0.1 | 12.5 (≈ 29.2 µM) | 0.8 (≈ 1.87 µM) | excellent antimicrobial activity | 6.2 (≈ 14.5 µM) |  | > 400 | 6.2 (≈ 14.5 µM) | 6.2 (≈ 14.5 µM) | MIC ([7]; Proteus vulgaris): 12.5 µg/mL (≈ 29.2 µM) |
| CO[C@@]1(NC(=O)CSc2nnc(C)s2)C(=O)N2C(C(=O)O)=C(CSc3nnnn3C)CS[C@@H]21 [7β-(5-methyl-1,3,4-thiadiazol-2-yl)thioacetamido-7α-methoxy-3-(1-methyl-1H-tetrazol-5-yl)thiomethyl-3-cephem-4-carboxylic acid] | 1.5 (≈ 2.83 µM) | 0.4 (≈ 0.754 µM) | 6.2 (≈ 11.7 µM) | 1.5 (≈ 2.83 µM) | excellent antimicrobial activity | 12.5 (≈ 23.6 µM) | 3.1 (≈ 5.84 µM) | 400 (≈ 754 µM) | 12.5 (≈ 23.6 µM) | 12.5 (≈ 23.6 µM) |  |
| CO[C@@]1(NC(=O)CSc2nnc(C)s2)C(=O)N2C(C(=O)O)=C(COC(N)=O)CS[C@@H]21 [7β-(5-methyl-1,3,4-thiadiazol-2-yl)thioacetamido-7α-methoxy-3-carbamoyloxymethyl-3-cephem-4-carboxylic acid] | 3.1 (≈ 6.52 µM) | 0.8 (≈ 1.68 µM) | 12.5 (≈ 26.3 µM) | 3.1 (≈ 6.52 µM) | excellent antimicrobial activity | 6.2 (≈ 13 µM) | 6.2 (≈ 13 µM) | > 200 | 6.2 (≈ 13 µM) | 6.2 (≈ 13 µM) |  |
| CO[C@@]1(NC(=O)CSc2ncc[nH]2)C(=O)N2C(C(=O)O)=C(CSc3nnnn3C)CS[C@@H]21 [7β-(imidazol-2-yl)thioacetamido-7α-methoxy-3-(1-methyl-1H-tetrazol-5-yl)thiomethyl-3-cephem-4-carboxylic acid] | 3.1 (≈ 6.22 µM) | 0.8 (≈ 1.6 µM) | 6.2 (≈ 12.4 µM) | 3.1 (≈ 6.22 µM) | excellent antimicrobial activity | 6.2 (≈ 12.4 µM) | 12.5 (≈ 25.1 µM) | > 200 | 6.2 (≈ 12.4 µM) | 6.2 (≈ 12.4 µM) |  |
| CO[C@@]1(NC(=O)CSc2ncc[nH]2)C(=O)N2C(C(=O)O)=C(COC(C)=O)CS[C@@H]21 [7β-(imidazol-2-yl)thioacetamido-7α-methoxy-3-acetoxymethyl-3-cephem-4-carboxylic acid] | 6.2 (≈ 14 µM) | 1.5 (≈ 3.39 µM) | 25 (≈ 56.5 µM) | 6.2 (≈ 14 µM) | excellent antimicrobial activity | 12.5 (≈ 28.3 µM) | 25 (≈ 56.5 µM) | > 400 | 12.5 (≈ 28.3 µM) | 25 (≈ 56.5 µM) |  |
| CO[C@@]1(NC(=O)CSc2ncc[nH]2)C(=O)N2C(C(=O)O)=C(COC(N)=O)CS[C@@H]21 [7β-(imidazol-2-yl)thioacetamido-7α-methoxy-3-carbamoyloxymethyl-3-cephem-4-carboxylic acid] | 1.5 (≈ 3.38 µM) | ≤ 0.1 | 3.1 (≈ 6.99 µM) | 0.8 (≈ 1.8 µM) | excellent antimicrobial activity | 1.5 (≈ 3.38 µM) | 6.2 (≈ 14 µM) | > 200 | 3.1 (≈ 6.99 µM) | 3.1 (≈ 6.99 µM) |  |
| CO[C@@]1(NC(=O)CSCC#N)C(=O)N2C(C(=O)O)=C(CSc3nnnn3C)CS[C@@H]21 [7β-cyanomethylthioacetamido-7α-methoxy-3-(1-methyl-1H-tetrazol-5-yl)thiomethyl-3-cephem-4-carboxylic acid] |  |  | 0.8 (≈ 1.7 µM) | 0.8 (≈ 1.7 µM) | excellent antimicrobial activity |  |  | > 200 |  | 0.8 (≈ 1.7 µM) | MIC ([1]; ENTERITIDIS): 0.2 µg/mL (≈ 0.424 µM); MIC ([2]; Staphylococcus aureus, 209P): 0.2 µg/mL (≈ 0.424 µM); MIC ([7]; Proteus vulgaris): 1.5 µg/mL (≈ 3.18 µM); MIC ([9]; Klebsiella, 806, read-out: Minimal inhibitory concentration): 0.8 µg/mL (≈ 1.7 µM) |
